From patent US6914045B2, “Glycopeptide antibiotics” (Wyeth Holdings Corporation, priority 2001, dated 2005)
In brackets after ≈: the same amount, converted by molar mass.

Columns and labels:
Assay in all cases: in vitro antibacterial evaluation, MIC by broth dilution
Type in all cases: cell-based
Escherichia coli = conditions: 18 hours at 35° C.
Enterococcus sp. = conditions: broth dilution, 18 hours at 35° C.
Summary of the method: (§1)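 Step 1: dilute antibiotic across 64-0.06 μg/mL in Muller-Hinton II […]. Step 2: inoculate at 5×10^5 CFU/mL.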

Streptococcus sp. = conditions: broth dilution, 18 hours at 35° C.
Summary of the method: as §1

Staphylococcus sp. = conditions: broth dilution, 18 hours at 35° C.
Summary of the method: as §1

MIC Escherichia coli (ATCC 25922) (Escherichia coli): >64 µg/mL | MIC Escherichia coli (GC 4559) (Escherichia coli): >64 µg/mL | MIC Escherichia coli (GC 4560) (Escherichia coli): 32 µg/mL (≈ 22 µM) | MIC Enterococcus avium (GC 4558) (Enterococcus sp.): 16 µg/mL (≈ 11 µM) | MIC Enterococcus faecalis (ATCC 29212) (Enterococcus sp.): 32 µg/mL (≈ 22 µM) | MIC Enterococcus faecalis (GC 2242) (Enterococcus sp.): 32 µg/mL (≈ 22 µM) | MIC Enterococcus faecalis (GC 2691) (Enterococcus sp.): 32 µg/mL (≈ 22 µM) | MIC Enterococcus faecalis (GC 3059) (Enterococcus sp.): 32 µg/mL (≈ 22 µM) | MIC Enterococcus faecalis (GC 4552) (Enterococcus sp.): 32 µg/mL (≈ 22 µM) | MIC Enterococcus faecalis (GC 4553) (Enterococcus sp.): 32 µg/mL (≈ 22 µM) | MIC Enterococcus faecalis (GC 4554) (Enterococcus sp.): 32 µg/mL (≈ 22 µM) | MIC Enterococcus faecalis (GC 6189) (Enterococcus sp.): 32 µg/mL (≈ 22 µM) | MIC Enterococcus faecium (GC 2243) (Enterococcus sp.): 32 µg/mL (≈ 22 µM) | MIC Enterococcus faecium (GC 4556) (Enterococcus sp.): 32 µg/mL (≈ 22 µM) | MIC Enterococcus faecium (GC 4557) (Enterococcus sp.): 16 µg/mL (≈ 11 µM) | MIC Enterococcus faecalis (ATCC 29212) (Enterococcus sp.; strain ATCC 29212): 32 µg/mL (≈ 22 µM) | MIC Enterococcus faecium (GC 2243) (Enterococcus sp.; strain GC 2243): 32 µg/mL (≈ 22 µM) | MIC Enterococcus faecalis (GC 4552) (Enterococcus sp.; strain GC 4552): 32 µg/mL (≈ 22 µM) | MIC Enterococcus faecalis (GC 4553) (Enterococcus sp.; strain GC 4553): 32 µg/mL (≈ 22 µM) | MIC Enterococcus faecalis (GC 4554) (Enterococcus sp.; strain GC 4554): 32 µg/mL (≈ 22 µM) | MIC Enterococcus faecium (GC 4556) (Enterococcus sp.; strain GC 4556): 32 µg/mL (≈ 22 µM) | MIC Enterococcus faecium (GC 4557) (Enterococcus sp.; strain GC 4557): 16 µg/mL (≈ 11 µM) | MIC Enterococcus avium (GC 4558) (Enterococcus sp.; strain GC 4558): 16 µg/mL (≈ 11 µM) | MIC Enterococcus faecalis (GC 6189) (Enterococcus sp.; strain GC 6189): 32 µg/mL (≈ 22 µM) | MIC Enterococcus faecalis (GC 2242) (Enterococcus sp.; inoculum 5×10^5 CFU/mL, strain GC 2242): 32 µg/mL (≈ 22 µM) | MIC Enterococcus faecalis (GC 2691) (Enterococcus sp.; inoculum 5×10^5 CFU/mL, strain GC 2691): 32 µg/mL (≈ 22 µM) | MIC Enterococcus faecalis (GC 3059) (Enterococcus sp.; inoculum 5×10^5 CFU/mL, strain GC 3059): 32 µg/mL (≈ 22 µM) | MIC Streptococcus agalactiae (GC 4564) (Streptococcus sp.): 16 µg/mL (≈ 11 µM) | MIC Streptococcus pneumoniae (ATCC 6301) (Streptococcus sp.): 16 µg/mL (≈ 11 µM) | MIC Streptococcus pneumoniae (GC 1894) (Streptococcus sp.): 1 µg/mL (≈ 0.688 µM) | MIC Streptococcus pneumoniae (GC 4565) (Streptococcus sp.): 2 µg/mL (≈ 1.38 µM) | MIC Streptococcus pyogenes (GC 4563) (Streptococcus sp.): 8 µg/mL (≈ 5.5 µM) | MIC Streptococcus pneumoniae (ATCC 6301) (Streptococcus sp.; inoculum 5×10^5 CFU/mL, strain ATCC 6301): 16 µg/mL (≈ 11 µM) | MIC Streptococcus pneumoniae (GC 1894) (Streptococcus sp.; inoculum 5×10^5 CFU/mL, strain GC 1894): 1 µg/mL (≈ 0.688 µM) | MIC Streptococcus pyogenes (GC 4563) (Streptococcus sp.; inoculum 5×10^5 CFU/mL, strain GC 4563): 8 µg/mL (≈ 5.5 µM) | MIC Streptococcus agalactiae (GC 4564) (Streptococcus sp.; inoculum 5×10^5 CFU/mL, strain GC 4564): 16 µg/mL (≈ 11 µM) | MIC Streptococcus pneumoniae (GC 4565) (Streptococcus sp.; inoculum 5×10^5 CFU/mL, strain GC 4565): 2 µg/mL (≈ 1.38 µM) | MIC Coagulase Negative Staphylococcus (GC 4547) (Staphylococcus sp.): 32 µg/mL (≈ 22 µM) | MIC Coagulase Negative Staphylococcus (GC 4548) (Staphylococcus sp.): 32 µg/mL (≈ 22 µM) | MIC Coagulase Negative Staphylococcus (GC 4549) (Staphylococcus sp.): 16 µg/mL (≈ 11 µM) | MIC Coagulase Negative Staphylococcus (GC 4551) (Staphylococcus sp.): 32 µg/mL (≈ 22 µM) | MIC Coagulase Negative Staphylococcus (GC 6257) (Staphylococcus sp.): 16 µg/mL (≈ 11 µM) | MIC Staphylococcus aureus (ATCC 29213) (Staphylococcus sp.): 32 µg/mL (≈ 22 µM) | MIC Staphylococcus aureus (GC 1131) (Staphylococcus sp.): 32 µg/mL (≈ 22 µM) | MIC Staphylococcus aureus (GC 3051) (Staphylococcus sp.): 32 µg/mL (≈ 22 µM) | MIC Staphylococcus aureus (GC 3053) (Staphylococcus sp.): 32 µg/mL (≈ 22 µM) | MIC Staphylococcus aureus (GC 4541) (Staphylococcus sp.): 32 µg/mL (≈ 22 µM) | MIC Staphylococcus aureus (GC 4542) (Staphylococcus sp.): 32 µg/mL (≈ 22 µM) | MIC Staphylococcus aureus (GC 4544) (Staphylococcus sp.): 32 µg/mL (≈ 22 µM) | MIC Staphylococcus aureus (GC 4545) (Staphylococcus sp.): 32 µg/mL (≈ 22 µM) | MIC Staphylococcus aureus-SMITH (GC 4543) (Staphylococcus sp.): 32 µg/mL (≈ 22 µM) | MIC Staphylococcus aureus (ATCC 29213) (Staphylococcus sp.; strain ATCC 29213): 32 µg/mL (≈ 22 µM) | MIC Staphylococcus aureus (GC 1131) (Staphylococcus sp.; strain GC 1131): 32 µg/mL (≈ 22 µM) | MIC Staphylococcus aureus (GC 3051) (Staphylococcus sp.; strain GC 3051): 32 µg/mL (≈ 22 µM) | MIC Staphylococcus aureus (GC 3053) (Staphylococcus sp.; strain GC 3053): 32 µg/mL (≈ 22 µM) | MIC Staphylococcus aureus (GC 4541) (Staphylococcus sp.; strain GC 4541): 32 µg/mL (≈ 22 µM) | MIC Staphylococcus aureus (GC 4542) (Staphylococcus sp.; strain GC 4542): 32 µg/mL (≈ 22 µM) | MIC Staphylococcus aureus-SMITH (GC 4543) (Staphylococcus sp.; strain GC 4543): 32 µg/mL (≈ 22 µM) | MIC Staphylococcus aureus (GC 4544) (Staphylococcus sp.; strain GC 4544): 32 µg/mL (≈ 22 µM) | MIC Staphylococcus aureus (GC 4545) (Staphylococcus sp.; strain GC 4545): 32 µg/mL (≈ 22 µM) | MIC Coagulase Negative Staphylococcus (GC 4547) (Staphylococcus sp.; strain GC 4547): 32 µg/mL (≈ 22 µM) | MIC Coagulase Negative Staphylococcus (GC 4548) (Staphylococcus sp.; strain GC 4548): 32 µg/mL (≈ 22 µM) | MIC Coagulase Negative Staphylococcus (GC 4549) (Staphylococcus sp.; strain GC 4549): 16 µg/mL (≈ 11 µM) | MIC Coagulase Negative Staphylococcus (GC 4551) (Staphylococcus sp.; strain GC 4551): 32 µg/mL (≈ 22 µM) | MIC Coagulase Negative Staphylococcus (GC 6257) (Staphylococcus sp.; strain GC 6257): 16 µg/mL (≈ 11 µM)
SMILES: CC(c1ccccc1)C1NC(=O)CNC(=O)C(CO)NC(=O)C(C(O)C2CNC(=N)N2C2OC(CO)C(O)C(O)C2O)NC(=O)C(C(O)C2CNC(=N)N2)NC(=O)C(Cc2ccc(OC3OC(CO)C(OC4OC(CO)C(OCC=Cc5ccc(N(C)C)cc5)C(O)C4O)C(O)C3O)cc2)NC1=O (stereo not shown) [Example 243a]
MIC Staphylococcus haemolyticus (GC 4546) (Staphylococcus sp.): 32 µg/mL (≈ 22 µM) | MIC Staphylococcus haemolyticus (GC 4546) (Staphylococcus sp.; strain GC 4546): 32 µg/mL (≈ 22 µM)
